Legend:
[1] = target: T1, DRB1*15:01 (Homo sapiens, UniProt P01903+P01911); assay: REVEAL HLA-Peptide binding assay (ProImmune); details: score relative to high-affinity control peptide, percentage of the control signal
T1 construct: purchased ProImmune
Procedure: (§1) To test the designs, we synthesized twenty overlapping 15-mer peptides containing the introduced mutations and their wild-type counterparts. The peptides maximally covered the predicted epitopes around the mutations of all designed constructs that contained one and two mutations (Supplementary S2 Table). The affinity of these peptides to the three HLA alleles was measured at time zero and after 24 hours (Methods, Supplementary S3 and S4 Tables). We linearly combined the measured relative affinity scores across HLA alleles weighted by their allele frequencies for each peptide respectively to produce a score that approximates the overall immunogenicity (Fig 5A). Results are presented for measurements taken at time point zero. […] Overall, the measured and predicted immunogenicity of the tested peptides correlated well with r = 0.76 (CI95 = [0.48, 0.91], t = 4.885, df = 17, p-value = 1.4e-4; Fig 5A). Next, we compared the predicted and measured gain or loss in immunogenicity for the whole region by reconstructing the targeted region using overlapping peptides. The measured relative scores were linearly combined (as previously) and then normalized to the number of overlapping peptides used in the reconstruction (Fig 5B). The difference in the measured scores between the wild type and mutant regions can be thought of as a proxy for gain or loss in immunogenicity and correlated well to the predicted changes (r = 0.86, CI95 = [0.40, 0.97], t = 4.136, df = 6, p-value = 6.1e-3; Fig 5B).
(§2) In order to experimentally verify our in silico predictions for Factor VIII, we utilized the commercial REVEAL HLA-Peptide binding assay of ProImmune (www.proimmune.com). Peptides were synthesized using the PEPscreen custom library synthesis method, yielding high purity peptides for experimental analysis. HLA-peptide binding was assessed for the three HLA-DRB1 alleles used in this study (DRB1*15:01, DRB1*03:01 and DRB1*07:01). In short, the method compares the affinity of the studied peptide to the affinity of a high-affinity control peptide. Each peptide is then scored for binding to a certain HLA molecule relative to the score of the control peptide and reported as the percentage of the signal generated by the control peptide.

[2] = target: DRB1*07:01 (Homo sapiens, UniProt P01903+P01911, A100R/A102G/A103Q/D57E/D86V/E43K/F76Y/K127E/L162R/M171V/P40G/Q125H/Q99D/R33Q/R42Y/R54Q/S133A/S66F/T210M/V115G/Y107V/Y59L/Y89S); assay: REVEAL HLA-Peptide binding assay (ProImmune); details: score relative to high-affinity control peptide, percentage of the control signal
Procedure: as §1, §2

[3] = target: T2, DRB1*03:01 (Homo sapiens, UniProt P01903+P01911, A100K/A102G/A103R/A169T/F55Y/I96L/K41T/L162R/M171V/P40S/Q125H/Q178H/Q39Y/R42S/S66N/T106N/T262R/W38E/Y61H); assay: REVEAL HLA-Peptide binding assay (ProImmune); details: score relative to high-affinity control peptide, percentage of the control signal
T2 construct: purchased ProImmune
Procedure: as §1, §2

[4] = test system: DRB1*15:01, DRB1*03:01 and DRB1*07:01; assay: Experimental immunogenicity score: relative HLA binding combined across alleles, weighted by allele frequency; set-up: species or system human; key: allele-frequency-weighted sum of binding, % of control peptide signal; details: for Difference to WT (Experimental Score): per peptide against wild-type counterpart; for Experimental Score: per peptide, weights DRB1*15:01 0.162, DRB1*07:01 0.146, DRB1*03:01 0.143
Procedure: as §1
Fig 5 (A) Correlation of experimental and predicted immunogenicity of each peptide. The experimental immunogenicity score of a peptide is defined as the linear combination of the individual experimentally determined relative HLA binding affinity of each HLA allele h ∈ H weighted by the HLA allele frequency. (B) Correlation of experimental and predicted immunogenicity of the whole redesigned region. The summarized immunogenicity score of the whole region is the linear combination of the overlapping peptides used to reconstruct the region, normalized by total number of peptides used. The predicted immunogenicity scores per peptide were computed according to our immunogenicity objective function. The red lines are a fitted linear regression and the red tubes represent their 95-confidence interval.
as §2

[5] = time 0 (H0), listed as FTRYLRIHPQSWVHH
[6] = time 0 (H0), listed as LTRHLRIHPQSWEHQ
[7] = time 0 (H0), listed as FTRYLRIHPQSWEHQ

With “LTRYLKIHPQSWEHQ [Design M-9, peptide covering R2326K, V2333E]” the “DRB1*15:01” value ([1]; after 24 hours (H24)) was 0.300%, the “DRB1*15:01” value ([1]; time 0 (H0)) was 5.434% and the “DRB1*07:01” value ([2]; after 24 hours (H24)) was 17.900%. For the same sequence, the “DRB1*07:01” value ([2]; time 0 (H0)) was 28.951%, the “DRB1*03:01” value ([3]; after 24 hours (H24)) was 0.000% and the “DRB1*03:01” value ([3]; time 0 (H0)) was 1.668%. The “Difference to WT (Experimental Score)” value ([4]; after 24 hours (H24)) was -10.725, the “Experimental Score” value ([4]; after 24 hours (H24)) was 2.662 and the “Difference to WT (Experimental Score)” value ([4]; time 0 (H0)) was -12.376. For the same sequence, the “Experimental Score” value ([4]; time 0 (H0)) was 5.346.
With “FTRYLRIHPQSWVHH [Design M-13, peptide covering L2321F, Q2335H]” the “DRB1*15:01” value ([1]; after 24 hours (H24)) was 7.500%, the “DRB1*15:01” value ([1]; time 0 (H0)) was 16.564% and the “DRB1*15:01” value [1, 5] was 16.6%. The “DRB1*07:01” value ([2]; after 24 hours (H24)) was 29.800%, the “DRB1*07:01” value ([2]; time 0 (H0)) was 39.809% and the “DRB1*07:01” value [2, 5] was 39.8%. For the same sequence, the “DRB1*03:01” value ([3]; after 24 hours (H24)) was 0.000%, the “DRB1*03:01” value ([3]; time 0 (H0)) was 1.449% and the “DRB1*03:01” value [3, 5] was 1.4%. For the same sequence, the “Difference to WT (Experimental Score)” value ([4]; after 24 hours (H24)) was -7.821, the “Experimental Score” value ([4]; after 24 hours (H24)) was 5.566 and the “Difference to WT (Experimental Score)” value ([4]; time 0 (H0)) was -9.019. The “Experimental Score” value ([4]; time 0 (H0)) was 8.703.
With “LTRHLRIHPQSWEHQ [Design M-8, peptide covering Y2324H, V2333E]” the “DRB1*15:01” value ([1]; after 24 hours (H24)) was 2.000%, the “DRB1*15:01” value ([1]; time 0 (H0)) was 13.999% and the “DRB1*15:01” value [1, 6] was 0.0%. For the same sequence, the “DRB1*07:01” value ([2]; after 24 hours (H24)) was 0.100%, the “DRB1*07:01” value ([2]; time 0 (H0)) was 2.480% and the “DRB1*07:01” value [2, 6] was 14.0%. The “DRB1*03:01” value ([3]; after 24 hours (H24)) was 0.000%, the “DRB1*03:01” value ([3]; time 0 (H0)) was 0.000% and the “DRB1*03:01” value [3, 6] was 2.5%. For the same sequence, the “Difference to WT (Experimental Score)” value ([4]; after 24 hours (H24)) was -13.048, the “Experimental Score” value ([4]; after 24 hours (H24)) was 0.339 and the “Difference to WT (Experimental Score)” value ([4]; time 0 (H0)) was -15.092. For the same sequence, the “Experimental Score” value ([4]; time 0 (H0)) was 2.630.
“FTRYLRIHPQSWEHQ [Design M-10, peptide covering L2321F, V2333E]” was tested, and the “DRB1*15:01” value ([1]; after 24 hours (H24)) was 0.300%, the “DRB1*15:01” value ([1]; time 0 (H0)) was 2.906% and the “DRB1*15:01” value [1, 7] was 2.9%. The “DRB1*07:01” value ([2]; after 24 hours (H24)) was 27.400%, the “DRB1*07:01” value ([2]; time 0 (H0)) was 43.779% and the “DRB1*07:01” value [2, 7] was 43.8%. The “DRB1*03:01” value ([3]; after 24 hours (H24)) was 0.000%, the “DRB1*03:01” value ([3]; time 0 (H0)) was 0.020% and the “DRB1*03:01” value [3, 7] was 0%. For the same sequence, the “Difference to WT (Experimental Score)” value ([4]; after 24 hours (H24)) was -9.338, the “Experimental Score” value ([4]; after 24 hours (H24)) was 4.049 and the “Difference to WT (Experimental Score)” value ([4]; time 0 (H0)) was -10.856. For the same sequence, the “Experimental Score” value ([4]; time 0 (H0)) was 6.865.
“LRLHPQSWEHQIALRM [Design M-15, peptide covering I2327L, V2333E]” was tested, and the “DRB1*15:01” value ([1]; after 24 hours (H24)) was 5.300%, the “DRB1*15:01” value ([1]; time 0 (H0)) was 18.099% and the “DRB1*07:01” value ([2]; after 24 hours (H24)) was 21.500%. The “DRB1*07:01” value ([2]; time 0 (H0)) was 42.841%, the “DRB1*03:01” value ([3]; after 24 hours (H24)) was 0.000% and the “DRB1*03:01” value ([3]; time 0 (H0)) was 0.032%. For the same sequence, the “Difference to WT (Experimental Score)” value ([4]; after 24 hours (H24)) was -4.380, the “Experimental Score” value ([4]; after 24 hours (H24)) was 3.998 and the “Difference to WT (Experimental Score)” value ([4]; time 0 (H0)) was -7.378. The “Experimental Score” value ([4]; time 0 (H0)) was 9.191.
In the case of “RIHPQSWVHHIALRM [Design M-4, peptide covering Q2335H]”, the “DRB1*15:01” value ([1]; after 24 hours (H24)) is reported as 0.000%, the “DRB1*15:01” value ([1]; time 0 (H0)) is reported as 9.756% and the “DRB1*07:01” value ([2]; after 24 hours (H24)) is reported as 53.300%. For the same sequence, the “DRB1*07:01” value ([2]; time 0 (H0)) was 75.329%, the “DRB1*03:01” value ([3]; after 24 hours (H24)) was 0.000% and the “DRB1*03:01” value ([3]; time 0 (H0)) was 0.005%. For the same sequence, the “Difference to WT (Experimental Score)” value ([4]; after 24 hours (H24)) was 2.595, the “Experimental Score” value ([4]; after 24 hours (H24)) was 7.782 and the “Difference to WT (Experimental Score)” value ([4]; time 0 (H0)) was 5.857. For the same sequence, the “Experimental Score” value ([4]; time 0 (H0)) was 12.579.
